Assay results: ChEMBL document CHEMBL1909294, “Translating clinical findings into knowledge in drug safety evaluation--drug induced liver injury prediction system (DILIps)” (PLoS Comput Biol, 2011)

Tests used:
Hepatotoxicity [1] = tested on: Hepatotoxicity;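 on HepSE bilirubinemia: bilirubinemia hepatic side effect score drawn from the DILIps training data, a prediction system for drug-induced liver injury; call rule not given here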;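 on HepSE cholecystitis: Cholecystitis-related hepatic side effect score drawn from the DILIps (drug-induced liver injury prediction) training data set; call rule not given here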;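 on HepSE cholelithiasis: hepatic side effect score for cholelithiasis, drawn from the DILIps training data for predicting drug-induced liver injury; call rule not given here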;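 on HepSE cirrhosis: cirrhosis hepatic side effect score taken from the DILIps (drug-induced liver injury prediction) training set; call rule not given here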;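 on HepSE elevated liver function tests: hepatic side effect score for raised liver function tests, as recorded in the DILIps training set used for predicting drug-induced liver injury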; on HepSE hepatic failure: call rule not given here;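 on HepSE hepatomegaly: hepatic side effect score for hepatomegaly, taken from the training set of the DILIps drug-induced liver injury prediction system; call rule not given here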
Hepatotoxicity [2] = tested on: Hepatotoxicity; remark: listed apart in the source;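 on HepSE bilirubinemia: bilirubinemia hepatic side effect score drawn from the DILIps training data, a prediction system for drug-induced liver injury; call rule not given here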;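 on HepSE cholecystitis: Cholecystitis-related hepatic side effect score drawn from the DILIps (drug-induced liver injury prediction) training data set; call rule not given here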;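 on HepSE cholelithiasis: hepatic side effect score for cholelithiasis, drawn from the DILIps training data for predicting drug-induced liver injury; call rule not given here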;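 on HepSE cirrhosis: cirrhosis hepatic side effect score taken from the DILIps (drug-induced liver injury prediction) training set; call rule not given here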;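 on HepSE elevated liver function tests: hepatic side effect score for raised liver function tests, as recorded in the DILIps training set used for predicting drug-induced liver injury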; on HepSE hepatic failure: call rule not given here;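 on HepSE hepatomegaly: hepatic side effect score for hepatomegaly, taken from the training set of the DILIps drug-induced liver injury prediction system; call rule not given here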
Hepatotoxicity [3] = tested on: Hepatotoxicity; remark: listed apart in the source;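 on HepSE bilirubinemia: bilirubinemia hepatic side effect score drawn from the DILIps training data, a prediction system for drug-induced liver injury; call rule not given here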;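 on HepSE cholecystitis: Cholecystitis-related hepatic side effect score drawn from the DILIps (drug-induced liver injury prediction) training data set; call rule not given here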;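 on HepSE cholelithiasis: hepatic side effect score for cholelithiasis, drawn from the DILIps training data for predicting drug-induced liver injury; call rule not given here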;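 on HepSE cirrhosis: cirrhosis hepatic side effect score taken from the DILIps (drug-induced liver injury prediction) training set; call rule not given here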;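 on HepSE elevated liver function tests: hepatic side effect score for raised liver function tests, as recorded in the DILIps training set used for predicting drug-induced liver injury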; on HepSE hepatic failure: call rule not given here
Hepatotoxicity [4] = tested on: Hepatotoxicity; remark: listed apart in the source;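 on HepSE bilirubinemia: bilirubinemia hepatic side effect score drawn from the DILIps training data, a prediction system for drug-induced liver injury; call rule not given here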;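 on HepSE cholecystitis: Cholecystitis-related hepatic side effect score drawn from the DILIps (drug-induced liver injury prediction) training data set; call rule not given here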;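 on HepSE cholelithiasis: hepatic side effect score for cholelithiasis, drawn from the DILIps training data for predicting drug-induced liver injury; call rule not given here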;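 on HepSE cirrhosis: cirrhosis hepatic side effect score taken from the DILIps (drug-induced liver injury prediction) training set; call rule not given here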;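 on HepSE elevated liver function tests: hepatic side effect score for raised liver function tests, as recorded in the DILIps training set used for predicting drug-induced liver injury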; on HepSE hepatic failure: call rule not given here
Hepatotoxicity [5] = tested on: Hepatotoxicity; remark: listed apart in the source; on HepSE hepatic failure: call rule not given here
Hepatotoxicity [6] = tested on: Hepatotoxicity; remark: listed apart in the source; on HepSE hepatic failure: call rule not given here
Hepatotoxicity [7] = tested on: Hepatotoxicity; remark: listed apart in the source
Hepatotoxicity [8] = tested on: Hepatotoxicity; remark: listed apart in the source
Hepatotoxicity [9] = tested on: Hepatotoxicity; remark: listed apart in the source
Hepatotoxicity [10] = tested on: Hepatotoxicity; remark: listed apart in the source
Hepatotoxicity [11] = tested on: Hepatotoxicity; remark: listed apart in the source
Hepatotoxicity [12] = tested on: Hepatotoxicity; remark: listed apart in the source
Hepatotoxicity [13] = tested on: Hepatotoxicity; remark: listed apart in the source
Hepatotoxicity [14] = tested on: Hepatotoxicity; remark: listed apart in the source

SMILES	HepSE_bilirubinemia (Hepatotoxicity [1])	HepSE_cholecystitis (Hepatotoxicity [2])	HepSE_cholelithiasis (Hepatotoxicity [3])	HepSE_cirrhosis (Hepatotoxicity [4])	HepSE_elevated liver function tests (Hepatotoxicity [5])	HepSE_hepatic failure (Hepatotoxicity [6])	HepSE_hepatic necrosis (Hepatotoxicity [7])	HepSE_hepatitis (Hepatotoxicity [8])	HepSE_hepatomegaly (Hepatotoxicity [9])	HepSE_jaundice (Hepatotoxicity [10])	HepSE_liver disease (Hepatotoxicity [11])	HepSE_liver fatty (Hepatotoxicity [12])	HepSE_liver function tests abnormal (Hepatotoxicity [13])	HepSE_Combined Scores (Hepatotoxicity [14])
Clc1ccc(C(c2ccccc2Cl)C(Cl)Cl)cc1 (configuration not stated) [MITOTANE]	0	0	0	0	0	0	0	0	0	0	0	0	0	0
O=C1c2c(O)ccc(O)c2C(=O)c2c(NCCNCCO)ccc(NCCNCCO)c21 [MITOXANTRONE]	0	0	0	0	0	0	0	1	0	1	0	0	0	2
NC(=O)C[S+]([O-])C(c1ccccc1)c1ccccc1 (configuration not stated) [MODAFINIL]	0	0	0	0	0	0	0	0	0	0	0	0	0	0
CCOC(=O)[C@H](CCc1ccccc1)N[C@@H](C)C(=O)N1Cc2cc(OC)c(OC)cc2C[C@H]1C(=O)O [MOEXIPRIL]	0	0	0	0	0	0	0	1	0	0	0	0	0	1
CCc1c(C)[nH]c2c1C(=O)C(CN1CCOCC1)CC2 (configuration not stated) [MOLINDONE]	0	0	0	0	0	0	0	0	0	0	0	0	0	0
C[C@@H]1C[C@H]2[C@@H]3CCC4=CC(=O)C=C[C@]4(C)[C@@]3(Cl)[C@@H](O)C[C@]2(C)[C@@]1(O)C(=O)CCl [MOMETASONE]	0	0	0	0	0	0	0	0	0	0	0	0	0	0
Oc1ccc(OCc2ccccc2)cc1 [MONOBENZONE]	0	0	0	0	0	0	0	0	0	0	0	0	0	0
CC(C)(O)c1ccccc1CC[C@@H](SCC1(CC(=O)O)CC1)c1cccc(/C=C/c2ccc3ccc(Cl)cc3n2)c1 [MONTELUKAST]	0	0	0	0	0	0	0	1	0	0	1	0	0	2
